Residues, ends and D or L forms follow the SMILES beside them. No end group written: not given here. *: point of attachment. FITC = O=C1OC2(c3ccc(O)cc3Oc3cc(O)ccc32)c2ccc(NC(=S)*)cc21
Experiments:
[1] = tested on: splenic lymphocyte subsets of CT26-bearing Balb/c mice; experiment: Flow cytometry of spleen lymphocytes of CT26-bearing mice after treatment; type: in vivo; settings: CT26-bearing Balb/c mice, 14 days after treatment; Figure 5D
Method: (§1) The mice’s tumor volumes were measured by calipers after they were randomly allocated to various treatment groups. Every day tumor volumes were measured along axes (a and b) that are orthogonal to one another, and they were estimated by the equation tumor volume = π/6 × a × b^2. After the tumor was established (approximately 7 days), each group was subcutaneously injected with PPL-C (6 or 11 mg/kg), control peptide (11 mg/kg), endotoxin-free PD-L1 antibody (200 μg), or control antibody, following specific treatment procedures outlined in the flow chart. The Kaplan-Meier technique was used to determine survival differences for each group, and the log-rank test using the survival R package version 2.38-3 was applied to get the overall p-value.
To differentiate lymphocytes, spleen monocytes were separated via isodensity centrifugation. For flow cytometry evaluation, cell-surface and intracellular staining was achieved through reagents from BD Biosciences or Biolegend, following previously described protocols. Re-suspending the 1× 10^6 cells in 100 μL of PBS before incubating them with the appropriate antibodies. Data were collected using a BD Biosciences FACSCalibur flow cytometer, Germany, and analyzed using FlowJo 7.6 software, USA. Based on scatter signals and 7-Amino-actinomycin D fluorescence, dead cells, and cell debris were removed from the study.

CT26 tumor = type: in vivo, mouse; settings: reduced dose, s.c. around the tumor every day or every other day, n = 6, P<0.001
Method: The investigators conducting the animal studies were not blinded. […] The mice were then randomized into different treatment groups.
as §1

PD-1/PD-L1 binding = molecular target: T1, PD-1/PD-L1 binding (Homo sapiens, UniProt Q9NZQ7); experiment: ELISA competition of peptides with PD-1 for binding to PD-L1; settings: n = 3, effect increases with peptide concentration
T1 construct: PD-1: 10377-H08H
Method: After seven phages were grown and purified, the solution was diluted 10 times to produce eight gradients. To ascertain the phage’s affinity for PD-L1, an ELISA test was run. Briefly, 96-well plates were filled with 150 µL of PD-L1 ([…]) in assay diluent (BioLegend, San Diego, CA), and incubated at 4°C overnight. 5% BSA in water was used to block the wells for two hours at 4°C. Following washing, 100 µL of phage diluent was added to each well, and they were shaken for two hours at room temperature. The wells were then treated with HRP-conjugated anti-M13 antibody at dose of 1:5000. With 100 µL of HRP substrate, the reaction was observed, and the OD410 was determined. By deducting the OD value of each phage binding to BSA-coated wells from the OD value of that phage binding to PD-L1, the specific binding of each phage to PD-L1 was computed. Three duplicate runs of this assay were made. GraphPad Prism 6 software was used to compute each phage binding affinity by nonlinear regression and convert it to a Scatchard plot. ELISA was used to evaluate the candidate peptides capacity to inhibit PD1/PD-L1 binding. The subsequent stages were the same as those previously outlined. Following incubation, OD410 was determined by goat anti-rabbit monoclonal antibody that had been HRP-labeled and rabbit anti-human PD-L1 protein monoclonal antibody.
To assess the effect of PPL-C peptide interference, PD-L1 binding to PD-1 was investigated using ELISA and cell-based analysis. For the ELISA, 100 μL of mouse PD-L1 in PBS was coated in each well of a 96-well plate and incubated the plate at 4°C overnight. On the second day, 1% BSA in PBST was used to block the plate. Each well was then filled with 200 nmol/L biotinylated PD-1 and FITC-labeled PPL-C peptides (at final concentrations of 40, 20, 10, 5, or 2.5 μmol/L) before 1.5 hours incubating at room temperature. After two PBST washes, the relative FITC fluorescence intensity was measured using a Cytation 3 instrument. […] After two PBST washes, the Cytation 3 device was used to detect PE fluorescence intensity. […] Samples were analyzed by flow cytometry.

T1 sequence (Q9NZQ7 19-239 limits assumed): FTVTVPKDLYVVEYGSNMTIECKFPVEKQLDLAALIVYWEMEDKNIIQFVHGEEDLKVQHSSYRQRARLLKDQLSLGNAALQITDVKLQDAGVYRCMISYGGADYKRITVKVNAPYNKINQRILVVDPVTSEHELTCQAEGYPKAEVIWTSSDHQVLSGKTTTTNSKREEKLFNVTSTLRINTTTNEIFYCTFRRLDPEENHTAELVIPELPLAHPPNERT

Competition with PD-1 to bind PD-L1 (blocking of PD-L1/PD-1) (PD-1/PD-L1 binding)	Compound	Percentage of NK cells in spleen (CD49b/Nkp46, upper right quadrant) [1] [%]	Survival time of CT26 tumor-bearing mice (CT26 tumor) [days]
–	SMQYADHPVNTGGGGSK-NH2 [Control peptide, scrambled control peptide, reference compound]	10.80	53
blocked moderately	CC[C@H](C)[C@H](NC(=O)[C@H](Cc1c[nH]c2ccccc12)NC(=O)[C@H](CO)NC(=O)[C@@H](NC(=O)[C@H](Cc1c[nH]cn1)NC(=O)[C@@H](N)CO)[C@@H](C)O)C(=O)N[C@@H](CC(C)C)C(=O)N[C@@H](Cc1ccc(O)cc1)C(=O)NCC(=O)N[C@@H](CCC(=O)O)C(=O)N[C@H](C(=O)NCC(=O)N[C@@H](Cc1c[nH]c2ccccc12)C(=O)NCC(=O)NCC(=O)NCC(=O)N[C@@H](CO)C(=O)N[C@@H](CCCCNC(=S)Nc1ccc2c(c1)C(=O)OC21c2ccc(O)cc2Oc2cc(O)ccc21)C(N)=O)[C@@H](C)O [PL-8] (H-SHTSWILYGETGWGGGSK(FITC)-NH2; N-terminus assumed)	–	–
blocked moderately	SHESWLPAYVLGSGGGSK-NH2 [PL-20]	–	–

Reference: paper PMC11091243, “PD-L1 targeted peptide demonstrates potent antitumor and immunomodulatory activity in cancer immunotherapy” (Frontiers in Immunology, 2024)
